Experimental findings from patent publication US9409966B2, “Glucagon-like peptide-1 derivatives and their pharmaceutical use” (priority 2007, dated 2016) are described below.

The target in the data set is human serum albumin (HSA) (Homo sapiens, UniProt P02768). The data set can be described thus: Albumin binding affinity, competition scintillation proximity assay (SPA).

SMILES strings stand for the structures. *1 amine or outer side, *2 acyl side, *3 side chain or, on linkers, in order; H or OH if unused. Where a SMILES comes first, the peptide text is derived from it. Side-chain parts run from the residue outwards. [ ]: non-standard residue; d: D form. The star is where a group is joined. X2 = O=C(O)CCCCCCCCCCCCCCCCC(=O)N[C@@H](CCC(=O)NCCOCCOCC(=O)NCCOCCOCC(=O)N[C@@H](CCCCN*)C(=O)O)C(=O)O; X1 = O=C(CCCCCCCCCCCCCCCc1nnn[nH]1)NS(=O)(=O)CCCC(=O)*; C20 diacid = O=C(O)CCCCCCCCCCCCCCCCCCC(=O)*; γGlu = O=C(O)[C@H](CCC(=O)[*:2])N[*:1]; βAsp = O=C(O)[C@H](CC(=O)[*:2])N[*:1]; AEEA = NCCOCCOCC(=O)O; Aib = CC(C)(N)C(=O)O; Inp = O=C(O)C1CCNCC1; GABA = NCCCC(=O)O

human serum albumin (HSA), sequence (P02768 25-609): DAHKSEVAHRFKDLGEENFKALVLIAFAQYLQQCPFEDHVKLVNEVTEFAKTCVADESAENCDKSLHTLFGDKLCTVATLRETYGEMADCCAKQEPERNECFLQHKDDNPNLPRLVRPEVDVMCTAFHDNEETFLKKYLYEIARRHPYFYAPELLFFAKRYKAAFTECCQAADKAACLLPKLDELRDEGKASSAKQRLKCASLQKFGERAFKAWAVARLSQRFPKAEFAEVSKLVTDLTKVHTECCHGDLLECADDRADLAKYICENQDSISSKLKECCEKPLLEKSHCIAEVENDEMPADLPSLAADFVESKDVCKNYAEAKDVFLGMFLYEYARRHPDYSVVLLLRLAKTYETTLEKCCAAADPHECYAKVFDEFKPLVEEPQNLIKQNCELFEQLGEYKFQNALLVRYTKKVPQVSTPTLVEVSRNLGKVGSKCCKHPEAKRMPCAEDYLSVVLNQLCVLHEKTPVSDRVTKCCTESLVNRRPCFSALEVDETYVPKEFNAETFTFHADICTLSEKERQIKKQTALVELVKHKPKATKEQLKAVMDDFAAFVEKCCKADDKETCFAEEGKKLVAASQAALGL
Procedure: Streptavidin-SPA beads (GE Healthcare RPNQ0009) were incubated with biotinylated HSA for 5 hours. The beads were washed with buffer to remove unbound HSA. […] After 20 hours of gentle rocking at room temperature the plates were centrifuged and counted on a TopCounter.

The compound `CC[C@H](C)[C@H](NC(=O)[C@H](Cc1cccc(C(F)(F)F)c1)NC(=O)[C@H](CCC(=O)O)NC(=O)[C@H](CCCNC(=N)N)NC(=O)[C@H](C)NC(=O)[C@H](C)NC(=O)[C@H](CCC(N)=O)NC(=O)[C@H](CCC(=O)O)NC(=O)[C@H](CCC(=O)O)NC(=O)[C@H](CC(C)C)NC(=O)[C@H](Cc1ccc(O)cc1)NC(=O)[C@H](CO)NC(=O)[C@H](CO)NC(=O)[C@@H](NC(=O)[C@H](CC(=O)O)NC(=O)[C@H](CO)NC(=O)[C@@H](NC(=O)[C@H](Cc1ccccc1)NC(=O)[C@@H](NC(=O)CNC(=O)[C@H](CCC(=O)O)NC(=O)[C@H](C)NC(=O)CCc1c[nH]cn1)[C@@H](C)O)[C@@H](C)O)C(C)C)C(=O)N[C@@H](C)C(=O)N[C@@H](Cc1c[nH]c2ccccc12)C(=O)N[C@@H](CC(C)C)C(=O)N[C@H](C(=O)N[C@@H](CCCNC(=N)N)C(=O)NCC(=O)N[C@@H](CCCNC(=N)N)C(=O)N[C@@H](CCCCNC(=O)COCCOCCNC(=O)COCCOCCNC(=O)C[C@@H](NC(=O)C1CCN(C(=O)CCCCCCCCCCCCCCCCC(=O)O)CC1)C(=O)O)C(N)=O)C(C)C` [Example 3, N-epsilon37-[2-(2-[2-(2-[2-(2-((R)-3-[1-(17-Carboxyheptadecanoyl)piperidin-4-ylcarbonylamino]3-carboxypropionylamino)ethoxy)ethoxy]acetylamino)ethoxy]ethoxy)acetyl][DesaminoHis 7,Glu22,Arg26,Arg34,Phe(m-CF3)28]GLP-1-(7-37)amide] had an EC50 of 1500 to 2000 nM.

Turning to `CC[C@H](C)[C@H](NC(=O)[C@H](Cc1ccccc1)NC(=O)[C@H](CCC(=O)O)NC(=O)[C@H](CCCNC(=N)N)NC(=O)[C@H](C)NC(=O)[C@H](C)NC(=O)[C@H](CCC(N)=O)NC(=O)[C@H](CCC(=O)O)NC(=O)[C@H](CCC(=O)O)NC(=O)[C@H](CC(C)C)NC(=O)[C@H](Cc1ccc(O)cc1)NC(=O)[C@H](CO)NC(=O)[C@H](CO)NC(=O)[C@@H](NC(=O)[C@H](CC(=O)O)NC(=O)[C@H](CO)NC(=O)[C@@H](NC(=O)[C@H](Cc1ccccc1)NC(=O)[C@@H](NC(=O)CNC(=O)[C@H](CCC(=O)O)NC(=O)C(C)(C)NC(=O)[C@@H](N)Cc1c[nH]cn1)[C@@H](C)O)[C@@H](C)O)C(C)C)C(=O)N[C@@H](CCCCNC(=O)COCCOCCNC(=O)COCCOCCNC(=O)C[C@H](NC(=O)C1CCN(C(=O)CCCCCCCCCCCCCCCCCCC(=O)O)CC1)C(=O)O)C(=O)N[C@@H](Cc1c[nH]c2ccccc12)C(=O)N[C@@H](CC(C)C)C(=O)N[C@H](C(=O)N[C@@H](CCCCN)C(=O)NCC(=O)N[C@@H](CCCNC(=N)N)C(=O)NCC(=O)O)C(C)C` [Example 4, N-epsilon30{2-[2-(2-{2-[2-((S)-3-carboxy-3-{[1-(19-carboxynonadecanoyl)piperidine-4-carbonyl]amino}propionylamino)ethoxy]ethoxy}acetylamino)ethoxy]ethoxy}acetyl [Aib8,Glu22,Arg26,Lys30]GLP-1-(7-37)], the EC50 was 200 to 400 nM.

`CC[C@H](C)[C@H](NC(=O)[C@H](Cc1ccccc1)NC(=O)[C@H](CCC(=O)O)NC(=O)[C@H](CCCNC(=N)N)NC(=O)[C@H](C)NC(=O)[C@H](C)NC(=O)[C@H](CCC(N)=O)NC(=O)[C@H](CCC(=O)O)NC(=O)[C@H](CCC(=O)O)NC(=O)[C@H](CC(C)C)NC(=O)[C@H](Cc1ccc(O)cc1)NC(=O)[C@H](CO)NC(=O)[C@H](CO)NC(=O)[C@@H](NC(=O)[C@H](CC(=O)O)NC(=O)[C@H](CO)NC(=O)[C@@H](NC(=O)[C@H](Cc1ccccc1)NC(=O)[C@@H](NC(=O)CNC(=O)[C@H](CCC(=O)O)NC(=O)C(C)(C)NC(=O)[C@@H](N)Cc1c[nH]cn1)[C@@H](C)O)[C@@H](C)O)C(C)C)C(=O)N[C@@H](C)C(=O)N[C@@H](CCCCNC(=O)COCCOCCNC(=O)COCCOCCNC(=O)C[C@H](NC(=O)C1CCN(C(=O)CCCCCCCCCCCCCCCCCCC(=O)O)CC1)C(=O)O)C(=O)N[C@@H](CC(C)C)C(=O)N[C@H](C(=O)N[C@@H](CCCNC(=N)N)C(=O)NCC(=O)N[C@@H](CCCNC(=N)N)C(=O)NCC(=O)O)C(C)C` [Example 6, N-epsilon31-(2-{2-[2-(2-{2-[2-((S)-3-Carboxy-3-{[1-(19-carboxy-nonadecanoyl)piperidine-4-carbonyl]amino}propionylamino)ethoxy]ethoxy}acetylamino)ethoxy]ethoxy}acetyl)[Aib8,Glu22,Arg26,Lys31,Arg34]GLP-1-(7-37)] (H-H[Aib]EGTFTSDVSSYLEEQAAREFIAK([AEEA-AEEA-βAsp-Inp-C20 diacid])LVRGRG-OH) registered an EC50 of 200 to 400 nM.

With `CC[C@H](C)[C@H](NC(=O)[C@H](Cc1ccccc1)NC(=O)[C@H](CCC(=O)O)NC(=O)[C@H](CCCNC(=N)N)NC(=O)[C@H](C)NC(=O)[C@H](C)NC(=O)[C@H](CCC(N)=O)NC(=O)[C@H](CCC(=O)O)NC(=O)[C@H](CCC(=O)O)NC(=O)[C@H](CC(C)C)NC(=O)[C@H](Cc1ccc(O)cc1)NC(=O)[C@H](CO)NC(=O)[C@H](CO)NC(=O)[C@@H](NC(=O)[C@H](CC(=O)O)NC(=O)[C@H](CO)NC(=O)[C@@H](NC(=O)[C@H](Cc1ccccc1)NC(=O)[C@@H](NC(=O)CNC(=O)[C@H](CCC(=O)O)NC(=O)C(C)(C)NC(=O)[C@@H](N)Cc1c[nH]cn1)[C@@H](C)O)[C@@H](C)O)C(C)C)C(=O)N[C@@H](CCC(=O)O)C(=O)N[C@@H](Cc1c[nH]c2ccccc12)C(=O)N[C@@H](CC(C)C)C(=O)N[C@H](C(=O)N[C@@H](CCCCN)C(=O)NCC(=O)N[C@@H](CCCNC(=N)N)C(=O)N1CCC[C@H]1C(=O)N[C@@H](CCCCNC(=O)COCCOCCNC(=O)CC[C@H](NC(=O)CC[C@H](NC(=O)CCCNC(=O)CCCS(=O)(=O)NC(=O)CCCCCCCCCCCCCCCc1nnn[nH]1)C(=O)O)C(=O)O)C(=O)O)C(C)C` [Example 14, [Aib8,Glu22,Arg26,Glu30,Pro37]GLP-1-(7-37)Lys [2-(2-{2-[4-Carboxy-4-(4-carboxy-4-{4-[4-(16-1H-tetrazol-5-yl-hexadecanoylsulfamoyl)butyrylamino]butyrylamino}butyrylamino)butyrylamino]ethoxy}ethoxy)acetyl]] (H-H[Aib]EGTFTSDVSSYLEEQAAREFIEWLVKGRPK([AEEA-γGlu-γGlu-GABA-X1])-OH; N-terminus and C-terminus assumed), the 50% effective concentration (EC50) at 20 hours (human, pH 7.4) lay in the range of 150 to 200 nM.

With `CC[C@H](C)[C@H](NC(=O)[C@H](Cc1ccccc1)NC(=O)[C@H](CCC(=O)O)NC(=O)[C@H](CCCNC(=N)N)NC(=O)[C@H](C)NC(=O)[C@H](C)NC(=O)[C@H](CCC(N)=O)NC(=O)[C@H](CCC(=O)O)NC(=O)[C@H](CCC(=O)O)NC(=O)[C@H](CC(C)C)NC(=O)[C@H](Cc1ccc(O)cc1)NC(=O)[C@H](CO)NC(=O)[C@H](CO)NC(=O)[C@@H](NC(=O)[C@H](CC(=O)O)NC(=O)[C@H](CO)NC(=O)[C@@H](NC(=O)[C@H](Cc1ccccc1)NC(=O)[C@@H](NC(=O)CNC(=O)[C@H](CCC(=O)O)NC(=O)C(C)(C)NC(=O)[C@@H](N)Cc1c[nH]cn1)[C@@H](C)O)[C@@H](C)O)C(C)C)C(=O)N[C@@H](C)C(=O)N[C@@H](Cc1c[nH]c2ccccc12)C(=O)N[C@@H](CC(C)C)C(=O)N[C@H](C(=O)N[C@@H](CCCNC(=N)N)C(=O)NCC(=O)N[C@@H](CCCNC(=N)N)C(=O)NCCCC[C@H](NC(=O)COCCOCCNC(=O)COCCOCCNC(=O)CC[C@H](NC(=O)CCCCCCCCCCCCCCCCC(=O)O)C(=O)O)C(=O)O)C(C)C` [Example 28, N-alpha37-[2-(2-{2-[2-(2-{2-[(S)-4-Carboxy-4-(17-carboxy-heptadecanoylamino)-butyrylamino]-ethoxy}-ethoxy)-acetylamino]-ethoxy}-ethoxy)-acetyl] [Aib8,Glu22,Arg26,Arg34,epsilon-Lys37]GLP-1-(7-37)peptide] (H-H[Aib]EGTFTSDVSSYLEEQAAREFIAWLVRGR-X2), the half-maximal effective concentration (EC50) was 200 to 400 nM.

Broadly, the EC50 is the concentration at which the effect is half-maximal.
